SMILES strings stand for the structures. Like-named read-outs stand apart in the source and are kept apart here.

For experiment [1], the system named is Puccinia triticina. Nature of the experiment: Fungicidal activity: wheat brown rust (PUCCRT), wheat seedlings, booth sprayer to run-off or track spray. It is filed as in vivo. The conditions noted are these: for pest or weed control at 121.5 g/ha: Low-Volume Cereal Activity at 121.5 g/H; for pest or weed control at 100 ppm: High-Volume Cereal Activity at 100 ppm.

The subject of experiment [2] is Zymoseptoria tritici. Nature of the experiment: Fungicidal activity: leaf blotch of wheat (SEPTTR), wheat seedlings, booth sprayer to run-off or track spray. It is filed as in vivo. The following applies: for pest or weed control at 121.5 g/ha: Low-Volume Cereal Activity at 121.5 g/H; for pest or weed control at 100 ppm: High-Volume Cereal Activity at 100 ppm.
[3] abbreviates: 24 h, 1 Day Protectant, read-out: PUCCRT 1DP.
Setting [4] is: 72 h, 3 Day Curative, read-out: PUCCRT 3DC.
Where [5] appears, read: 24 h, 1 Day Protectant, read-out: SEPTTR 1DP.
Where [6] appears, read: 72 h, 3 Day Curative, read-out: SEPTTR 3DC.
[7] abbreviates: 3DC (Day Curative), read-out: PUCCRT 3DC.
The mark [8] stands for this setting: 3DC (Day Curative), read-out: SEPTTR 3DC.

On to `COc1ccnc(C(=O)N[C@H](C(=O)OC(C)C(Cc2ccccc2)Cc2ccccc2)C(C)C)c1OCOC(C)=O` (stereo partly drawn) [compound 266], for which the pest or weed control at 121.5 g/ha in experiment [1] (setting [3]) fell in the range of 80 to 100%; in experiment [1] (setting [4]), 0 to 80%; in experiment [2] (setting [5]), 0 to 80%.
`CCOCC(=O)OCOc1c(OC)ccnc1C(=O)N[C@@H](C)C(=O)O[C@@H](C)[C@@H](COCc1ccccc1)Cc1ccc(F)cc1` [compound 233]: the pest or weed control at 121.5 g/ha in experiment [1] (setting [3]) lay within 80 to 100%; in experiment [1] (setting [4]) it was 0 to 80%; in experiment [2] (setting [5]), 0 to 80%; in experiment [2] (setting [6]) it was 0 to 80%.
Consider `COc1ccnc(C(=O)N[C@@H](C)C(=O)O[C@@H](C)[C@H](CCC(C)C)c2ccccc2)c1O` [compound 123], for which the pest or weed control at 100 ppm in experiment [1] (setting [7]) fell in the range of 0 to 80%; in experiment [2] (setting [8]) it was 80 to 100%.
Turning to `CCCOC(C)(C)[C@@H](Cc1ccc(OC)c(Cc2ccccc2)c1)[C@H](C)OC(=O)[C@H](C)NC(=O)c1nccc(OC)c1OCOC(C)=O` [compound 259], the pest or weed control at 121.5 g/ha in experiment [1] (setting [3]) and in experiment [2] (setting [6]) was 0 to 80% each time.
With `CCCOC[C@@H](Cc1ccccc1)[C@H](C)OC(=O)[C@@H](C)NC(=O)c1nccc(OC)c1O` [compound 97], the pest or weed control at 100 ppm in experiment [1] (setting [3]), in experiment [1] (setting [7]), in experiment [2] (setting [5]) and in experiment [2] (setting [8]) was 0 to 80% each time.
`COc1ccc(C[C@@H]([C@H](C)OC(=O)[C@H](C)NC(=O)c2nccc(OC)c2OCOC(C)=O)C(C)(C)Oc2ccc(F)cc2F)cc1` [compound 279]: the pest or weed control at 121.5 g/ha was 80 to 100% in experiment [1] (setting [3]), 0 to 80% in experiment [1] (setting [4]), 0 to 80% in experiment [2] (setting [5]) and 80 to 100% in experiment [2] (setting [6]).
With `COc1ccnc(C(=O)N[C@@H](C)C(=O)O[C@@H](C)[C@@H](COCc2ccc(F)cc2)Cc2ccc(F)cc2)c1OCOC(C)=O` [compound 249], the pest or weed control at 121.5 g/ha in experiment [1] (setting [3]) was 80 to 100%; in experiment [1] (setting [4]) it was 0 to 80%; in experiment [2] (setting [5]), 80 to 100%; in experiment [2] (setting [6]), 0 to 80%.
As for `CC[C@H](Oc1ccccc1)[C@@H](Cc1ccccc1)[C@H](C)OC(=O)[C@H](C)NC(=O)c1nccc(OC)c1OCOC(C)=O` [compound 191], the pest or weed control at 121.5 g/ha in experiment [1] (setting [3]), in experiment [1] (setting [4]), in experiment [2] (setting [5]) and in experiment [2] (setting [6]) was 80 to 100% each time.
Turning to `CCCOC[C@@H](Cc1ccc(OC)c(Cc2ccccc2)c1)[C@H](C)OC(=O)[C@H](C)NC(=O)c1nccc(OC)c1OCOC(C)=O` [compound 258], the pest or weed control at 121.5 g/ha in experiment [1] (setting [3]), in experiment [1] (setting [4]), in experiment [2] (setting [5]) and in experiment [2] (setting [6]) was 0 to 80% throughout.
As for `COc1ccnc(C(=O)N[C@@H](C)C(=O)O[C@@H](C)[C@@H](COc2ccc(Cl)cc2Cl)Cc2ccccc2)c1OCOC(C)=O` [compound 209], the pest or weed control at 121.5 g/ha in experiment [1] (setting [3]), in experiment [2] (setting [5]) and in experiment [2] (setting [6]) was 0 to 80% throughout.
For `CCCOC(C)(C)[C@@H](Cc1ccc(OC)cc1)[C@H](C)OC(=O)[C@H](C)NC(=O)c1nccc(OC)c1OCOC(C)=O` [compound 257], the pest or weed control at 121.5 g/ha was in the range of 80 to 100% in experiment [1] (setting [3]) and 0 to 80% in experiment [2] (setting [6]).
With `COc1ccnc(C(=O)N[C@@H](C)C(=O)O[C@@H](C)[C@H](Cc2ccc(Cl)cc2)c2ccccc2)c1OCOC(=O)C(C)C` [compound 204], the pest or weed control at 121.5 g/ha in experiment [1] (setting [3]) fell in the range of 0 to 80%; in experiment [1] (setting [4]), 0 to 80%; in experiment [2] (setting [5]), 80 to 100%; in experiment [2] (setting [6]) it was 80 to 100%.
With `CCCO[C@@H](CC)[C@@H](Cc1ccccc1)[C@H](C)OC(=O)C(C)(C)NC(=O)c1nccc(OC)c1OCOC(C)=O` [compound 170], the pest or weed control at 100 ppm in experiment [1] (setting [3]), in experiment [2] (setting [5]) and in experiment [2] (setting [8]) was 0 to 80% each time.
With `CCCOC[C@@H](Cc1ccccc1)[C@H](C)OC(=O)[C@H](C)NC(=O)c1nccc(OC)c1OCOC(C)=O` [compound 162], the pest or weed control at 100 ppm in experiment [1] (setting [3]), in experiment [1] (setting [7]), in experiment [2] (setting [5]) and in experiment [2] (setting [8]) was 80 to 100% each time. Further, the pest or weed control at 121.5 g/ha in experiment [1] (setting [3]), in experiment [1] (setting [4]), in experiment [2] (setting [5]) and in experiment [2] (setting [6]) was 80 to 100% each time.
As for `CCCO[C@@H](CC)[C@@H](Cc1ccccc1)[C@H](C)OC(=O)[C@H](CC)NC(=O)c1nccc(OC)c1OCOC(C)=O` [compound 164], the pest or weed control at 100 ppm in experiment [1] (setting [3]), in experiment [1] (setting [7]), in experiment [2] (setting [5]) and in experiment [2] (setting [8]) was 80 to 100% in each case. Also, the pest or weed control at 121.5 g/ha in experiment [1] (setting [3]) fell in the range of 80 to 100%; in experiment [1] (setting [4]), 80 to 100%; in experiment [2] (setting [5]) it was 0 to 80%; in experiment [2] (setting [6]) it was 0 to 80%.
Take `COc1ccnc(C(=O)N[C@@H](C)C(=O)O[C@@H](C)[C@H](Cc2ccc(F)cc2)C(C)(C)OCc2ccccc2)c1O` [compound 133]: the pest or weed control at 100 ppm in experiment [1] (setting [3]) lay in the range of 80 to 100%; in experiment [2] (setting [5]), 0 to 80%; in experiment [2] (setting [8]) it was 0 to 80%.
For the compound `CC[C@H](NC(=O)c1nccc(OC)c1OCOC(C)=O)C(=O)O[C@@H](C)C(Cc1cccc(OC)c1)Cc1cccc(OC)c1` [compound 275], the pest or weed control at 121.5 g/ha in experiment [1] (setting [3]) lay within 80 to 100%; in experiment [1] (setting [4]) it was 0 to 80%; in experiment [2] (setting [5]), 0 to 80%.
For the compound `COc1ccnc(C(=O)N[C@@H](C)C(=O)O[C@@H](C)[C@H](Cc2ccccc2)C(C)(C)OCc2ccccc2)c1O` [compound 134], the pest or weed control at 100 ppm in experiment [1] (setting [3]) fell in the range of 80 to 100%; in experiment [1] (setting [7]) it was 0 to 80%; in experiment [2] (setting [5]) it was 80 to 100%; in experiment [2] (setting [8]), 0 to 80%.
In the case of `COc1ccnc(C(=O)N[C@@H](C)C(=O)O[C@@H](C)[C@@H](COCc2ccc(F)cc2)Cc2ccc(F)cc2)c1OC(C)=O` [compound 246], the pest or weed control at 121.5 g/ha was in the range of 0 to 80% in experiment [1] (setting [3]), 0 to 80% in experiment [1] (setting [4]), 80 to 100% in experiment [2] (setting [5]) and 0 to 80% in experiment [2] (setting [6]).
For `COc1ccnc(C(=O)N[C@@H](C)C(=O)O[C@@H](C)[C@H](Cc2ccc(Cl)c(Cl)c2)c2ccccc2)c1O` [compound 127], the pest or weed control at 100 ppm in experiment [1] (setting [3]), in experiment [2] (setting [5]) and in experiment [2] (setting [8]) was 0 to 80% in each case.
Regarding `COc1ccc(C[C@H](COCC2CC2)[C@H](C)OC(=O)[C@H](C)NC(=O)c2nccc(OC)c2OCOC(C)=O)cc1Cc1ccccc1` [compound 281], the pest or weed control at 121.5 g/ha lay within 80 to 100% in experiment [1] (setting [3]), 0 to 80% in experiment [1] (setting [4]), 0 to 80% in experiment [2] (setting [5]) and 80 to 100% in experiment [2] (setting [6]).
As for `COc1ccc(C[C@H](COc2ccc(F)cc2F)[C@H](C)OC(=O)[C@H](C)NC(=O)c2nccc(OC)c2OCOC(C)=O)cc1` [compound 282], the pest or weed control at 121.5 g/ha in experiment [1] (setting [3]) lay in the range of 80 to 100%; in experiment [2] (setting [5]) it was 0 to 80%; in experiment [2] (setting [6]), 0 to 80%.
As to `CCCO[C@@H](CC)[C@@H](Cc1ccccc1)[C@H](C)OC(=O)[C@H](C)NC(=O)c1nccc(OC)c1O` [compound 91], the pest or weed control at 100 ppm is 80 to 100% in experiment [1] (setting [3]), 80 to 100% in experiment [1] (setting [7]), 0 to 80% in experiment [2] (setting [5]) and 80 to 100% in experiment [2] (setting [8]).
As to `COc1ccnc(C(=O)N[C@@H](C)C(=O)OC(C)C(Cc2ccc(F)cc2)Cc2ccc(F)cc2)c1OCOC(C)=O` (stereo partly drawn) [compound 268], the pest or weed control at 121.5 g/ha in experiment [1] (setting [3]) lay in the range of 80 to 100%; in experiment [1] (setting [4]) it was 80 to 100%; in experiment [2] (setting [5]), 0 to 80%; in experiment [2] (setting [6]), 0 to 80%.
Turning to `COc1ccnc(C(=O)N[C@@H](C)C(=O)O[C@@H](C)[C@H](Cc2ccc(F)cc2)c2ccccc2)c1O` [compound 129], the pest or weed control at 100 ppm fell in the range of 80 to 100% in experiment [1] (setting [3]), 0 to 80% in experiment [1] (setting [7]), 80 to 100% in experiment [2] (setting [5]) and 0 to 80% in experiment [2] (setting [8]).
As for `CC[C@@H](Oc1ccccc1)[C@@H](Cc1ccccc1)[C@H](C)OC(=O)[C@H](C)NC(=O)c1nccc(OC)c1O` [compound 118], the pest or weed control at 100 ppm was in the range of 0 to 80% in experiment [1] (setting [3]), 80 to 100% in experiment [1] (setting [7]), 80 to 100% in experiment [2] (setting [5]) and 0 to 80% in experiment [2] (setting [8]).
As for `CCCO[C@H](CC)[C@@H](Cc1ccccc1)[C@H](C)OC(=O)[C@@H](C)NC(=O)c1nccc(OC)c1OCOC(C)=O` [compound 165], the pest or weed control at 100 ppm in experiment [1] (setting [3]) lay within 0 to 80%; in experiment [1] (setting [7]), 80 to 100%; in experiment [2] (setting [5]), 80 to 100%; in experiment [2] (setting [8]), 0 to 80%.
On to `COc1ccc(C[C@H](COCC2CC2)[C@H](C)OC(=O)[C@H](C)NC(=O)c2nccc(OC)c2OCOC(C)=O)cc1` [compound 280], for which the pest or weed control at 121.5 g/ha in experiment [1] (setting [3]) lay within 80 to 100%; in experiment [1] (setting [4]) it was 80 to 100%; in experiment [2] (setting [5]), 0 to 80%; in experiment [2] (setting [6]), 80 to 100%.
As to `C=C(C)[C@@H](Cc1ccccc1)[C@H](C)OC(=O)[C@H](C)NC(=O)c1nccc(OC)c1OCOC(C)=O` [compound 255], the pest or weed control at 121.5 g/ha lay in the range of 80 to 100% in experiment [1] (setting [3]), 80 to 100% in experiment [1] (setting [4]), 0 to 80% in experiment [2] (setting [5]) and 80 to 100% in experiment [2] (setting [6]).
